How the values were obtained:
CK1α = target: T1, CK1α (Homo sapiens, UniProt P48729+Q96SW2); experiment: CK1α NanoBit Assay (HiBiT-tagged CSNK1A1 in HEK293 cells, luminescence); format: cell-based; details: 24 h
T1 construct: HEK293 clonal lines with CRISPR KI HiBiT tag on CSNK1A1; host or cells: HEK293 clonal line, CRISPR knock-in HiBiT at the CSNK1A1 locus, stably expressing LgBiT
Procedure: HEK293 clonal lines with CRISPR KI HiBiT tag on CSNK1A1 and stably expressing LgBiT protein were obtained from Promega (Madison, WI). Cells were plated at 5000 cells per well using Multiflo (BioTek) in 384-well white solid bottom plates (Corning, 3570BC) in 25 μl volume in DMEM media (DMEM, high glucose, HEPES, no phenol red (ThermoFisher Scientific, 21063029)) containing 10% FBS (Corning, 35-075-CV), 1% Penicillin/Streptomycin ((ThermoFisher Scientific, 15140-122), and 0.2% Endurazine (Nano-Glo Endurazine Live Cell Substrate (Promega, N2571)). Cells were incubated for 16 hours at 37° C., 5% CO2. Depending on experiment 25 or 75 nL of a compound at 10 mM were added into the plate using an Echo® 650 liquid handler (Labcyte) to achieve final concentration of 10 or 30 μM in wells. Cells were incubated at 37° C., 5% CO2 for 24 hours and then signal was read on a Pherastar FSX using “LUM plus” optic module.
Data analysis was performed in Scinamic (Scinamic, Cambridge, MA). Luminescence response (R) was calculated by the formula: response=100*(S−N)/(P−N) where S is the signal of the well, N and P the mean negative and positive control values respectively of the same plate. The luminescence response was then fitted in Scinamic using a 3-parameter agonist logistic fit (hillslope=1, EC50>0, top/bottom unconstrained).
DC50 data are reported in Table 2 for compounds in Table 1. In Table 2 below, According to the code, A represents a DC50 value of ≤0.1 μM, B represents a DC50 value >0.1 μM and ≤1 μM, C represents an DC50 value >1 μM.

CRBN/DDB1 = CRBN/DDB1 (Homo sapiens, UniProt Q96SW2); experiment: HTRF binding assay (displacement of Cy5-thalidomide probe from CRBN/DDB1); details: CRBN/DDB1 2.5 nM, Cy5-Thalidomide 100 nM, 30 min; geometric mean; read-out: HTRF_Thali_Disp_DR_geo_IC50
Text: Binding of test compounds to CRBN/DDB1 was monitored in an HTRF assay using 1-[5-({2-[2-(2-{[2-(2,6-dioxopiperidin-3-yl)-1,3-dioxo-2,3-dihydro-1H-isoindol-4-yl]oxy}acetamido)ethoxy]ethyl}carbamoyl)pentyl]-3,3-dimethyl-2-[(1E,3E)-5-[(2E)-1,3,3-trimethyl-5-sulfo-2,3-dihydro-1H-indol-2-ylidene]penta-1,3-dien-1-yl]-3H-indol-1-ium-5-sulfonate as a fluorescent probe. In this assay, compounds displace the fluorescently labeled thalidomide-based probe bound to CRBN and fluorescence is monitored with increasing compound concentration. Assays were conducted in Greiner white 384 well HiBase plates (Cat. No 784075-25) in 10 μL total volume. A one pot detection solution of CRBN/DDB1 (2.5 nM), anti-His Terbium Cryptate Gold (1×, PerkinElmer Cat. #: 61HI2TLB), and Cy5-Thalidomide (100 nM, Tenova Cat.: T52461) was prepared in 20 mM HEPES, 20 mM NaCl, 0.2 mM TCEP, 0.2 mM EDTA, and 0.005% Tween20 was dispensed to each assay plate. Test compounds were stored in dry, ambient temperatures at 10 mM. A 10-point, 1:3 dilution series was prepared from 10 mM stock concentrations in Echo-compatible LDV plates. 10 nL of each compound dilution series was dispensed into assays wells using an Echo 650 (Labcyte inc. USA). 10 nL of 10 mM lenalidomide (Selleckchem Cat no. S1029) was transferred into the active-control wells for the assay and 10 nL of DMSO was transferred into the negative control wells. The assay was then allowed to incubate for 30 min at ambient temperature after transferring the test compounds. Plate measurements were taken on a Pherastar FSX (BMG Labtech, Germany) using the HTRF Red filter (Ex. 337 nm, em1: 620 nm, em2: 665 nm) (Flashes: 50, Integration time: 60-400 μs, Z-height: 10 mm, Ratio-multiplier: 10,000). Analysis, HTRF ratio and IC50 values were derived using KNIME analytics (KNIME Zurich) transformation and fitting within Collaborative Drug Discovery (Collaborative Drug Discovery USA) using a 4-parameter logistic fit. HTRF ratio calculation was performed using the following formula: […]
where em665 nm represents the measured emission at 665 nm upon excitation at 337 nm and em620 nm the measured emission at 620 nm upon excitation at 337 nm. The 4 parameter logistic fitting model was performed using the following formula: […]
where Y represents the HTRF ratio response (as defined previously), X the compound concentration in μM, Ymin the minimum response plateau, Ymax the maximum response plateau, IC50 the concentration of […] that gives a response half way between Ymin and Ymax and HillSlope the steepness of the family of curves. No fitting model constraints was applied on Ymin, or Ymax whilst IC50>0 and −0.5>HillSlope>−3 Cheng-Prusoff transformation
Ki values were derived from the geometric mean of the IC50 values using the Cheng-Prusoff transformation:
where [L] represents the concentration of fluorescent probe in […], Kd the affinity (binding constant) of the fluorescent probe in units of μM and IC50 the concentration of agonist that gives a response halfway between Ymin and Ymax (as described in 1.2.1)
Analysis and IC50 values were derived using KNIME analytics (KNIME, Zurich) transformation and fitting within Collaborative Drug Discovery (Collaborative Drug Discovery, USA) as described in 1.2.1. Ki values were derived from the geometric mean of the IC50 values using the Cheng-Prusoff transformation as described in 2.2.2. Data was visualized in GraphPad Prism 8.1.2 (GraphPad, USA) and reported as mean and standard deviation. Microsoft Office Excel 2012 (Redmond, WA) was used for calculation of mean and standard deviation.
IC50 data are reported in Table 3 for compounds in Table 1. In Table 3 below, According to the code, A represents a IC50 value of ≤0.1 μM, B represents a IC50 value >0.1 μM and ≤1 μM, C represents an IC50 value >1 μM.

Chain of CRBN/DDB1 (Q96SW2 whole entry): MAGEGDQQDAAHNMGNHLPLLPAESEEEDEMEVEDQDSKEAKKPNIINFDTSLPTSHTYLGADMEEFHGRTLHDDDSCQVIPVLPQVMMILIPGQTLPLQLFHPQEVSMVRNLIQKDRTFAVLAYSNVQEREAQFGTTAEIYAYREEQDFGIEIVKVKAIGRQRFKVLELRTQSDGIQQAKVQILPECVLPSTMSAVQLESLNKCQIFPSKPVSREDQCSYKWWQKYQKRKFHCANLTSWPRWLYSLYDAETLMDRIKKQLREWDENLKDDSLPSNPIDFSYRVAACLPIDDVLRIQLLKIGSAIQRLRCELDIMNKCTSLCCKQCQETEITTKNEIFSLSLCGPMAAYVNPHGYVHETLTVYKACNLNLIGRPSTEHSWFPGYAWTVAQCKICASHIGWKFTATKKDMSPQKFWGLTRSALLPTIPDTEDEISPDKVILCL
Chain of CRBN/DDB1 (Q16531 whole entry partner): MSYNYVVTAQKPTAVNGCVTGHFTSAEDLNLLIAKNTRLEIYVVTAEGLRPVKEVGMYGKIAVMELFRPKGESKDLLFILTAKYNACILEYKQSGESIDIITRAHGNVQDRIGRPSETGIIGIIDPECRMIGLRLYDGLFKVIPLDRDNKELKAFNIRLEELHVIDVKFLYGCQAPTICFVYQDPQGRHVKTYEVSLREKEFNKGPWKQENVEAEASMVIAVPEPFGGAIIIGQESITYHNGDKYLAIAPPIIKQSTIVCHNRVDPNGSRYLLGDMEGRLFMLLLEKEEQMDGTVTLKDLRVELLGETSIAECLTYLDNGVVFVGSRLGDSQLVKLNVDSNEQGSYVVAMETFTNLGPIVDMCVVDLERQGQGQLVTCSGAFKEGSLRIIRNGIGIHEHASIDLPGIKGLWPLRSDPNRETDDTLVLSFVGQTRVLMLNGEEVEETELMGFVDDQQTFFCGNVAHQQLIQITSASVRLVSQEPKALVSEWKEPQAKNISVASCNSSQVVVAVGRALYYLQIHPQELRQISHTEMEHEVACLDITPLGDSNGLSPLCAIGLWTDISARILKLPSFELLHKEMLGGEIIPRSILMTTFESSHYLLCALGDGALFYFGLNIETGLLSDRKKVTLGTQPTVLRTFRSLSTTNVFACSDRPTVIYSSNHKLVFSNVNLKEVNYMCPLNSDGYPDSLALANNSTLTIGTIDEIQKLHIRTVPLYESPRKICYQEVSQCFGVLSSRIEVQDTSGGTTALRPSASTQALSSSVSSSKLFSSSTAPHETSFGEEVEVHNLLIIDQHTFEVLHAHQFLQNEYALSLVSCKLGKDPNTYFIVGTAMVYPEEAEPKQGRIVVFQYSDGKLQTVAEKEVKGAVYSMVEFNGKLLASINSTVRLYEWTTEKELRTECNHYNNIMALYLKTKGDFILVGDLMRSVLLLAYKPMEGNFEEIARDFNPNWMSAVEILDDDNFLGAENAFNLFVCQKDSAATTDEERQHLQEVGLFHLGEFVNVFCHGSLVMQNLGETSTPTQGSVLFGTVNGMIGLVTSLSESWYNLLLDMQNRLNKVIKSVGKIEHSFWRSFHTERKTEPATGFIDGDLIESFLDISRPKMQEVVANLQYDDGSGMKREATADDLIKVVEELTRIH
T1 sequence (P48729 whole entry): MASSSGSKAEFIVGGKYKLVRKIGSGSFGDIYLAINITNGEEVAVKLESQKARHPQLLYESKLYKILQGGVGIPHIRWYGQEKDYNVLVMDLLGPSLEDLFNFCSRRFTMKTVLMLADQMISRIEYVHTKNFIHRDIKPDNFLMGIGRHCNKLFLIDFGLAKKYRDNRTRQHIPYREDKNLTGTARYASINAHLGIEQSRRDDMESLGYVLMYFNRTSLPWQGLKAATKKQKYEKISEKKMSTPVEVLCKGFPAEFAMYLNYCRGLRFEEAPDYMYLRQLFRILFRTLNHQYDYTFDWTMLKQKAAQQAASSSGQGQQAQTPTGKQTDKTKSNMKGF
T1 sequence (Q96SW2 whole entry): as the sequence (Q96SW2 whole entry) above
T1 sequence (Q16531 whole entry partner): as the sequence (Q16531 whole entry partner) above

| SMILES | DC50 (CK1α) [µM] | IC50 (CRBN/DDB1) [nM] |
| --- | --- | --- |
| N#Cc1ccc(N2CCN(c3ccc4c(c3)CN(C3CCC(=O)NC3=O)C4=O)C2=O)cc1 (stereo not drawn) [Compound 115] | 0.1 to 1 | 100 to 1000 |
| O=C1CCC(N2Cc3cc(N4CCN(C5COC5)C4=O)ccc3C2=O)C(=O)N1 (stereo not drawn) [Compound 178, 3-(5-(3-(oxetan-3-yl)-2-oxoimidazolidin-1-yl)-1-oxoisoindolin-2-yl)piperidine-2,6-dione] | > 1 | 100 to 1000 |
| CC(c1ccccc1)N1CCN(c2ccc3c(c2)CN(C2CCC(=O)NC2=O)C3=O)C1=O (stereo not drawn) [Compound 154, 3-(1-oxo-5-(2-oxo-3-(1-phenylethyl)imidazolidin-1-yl)isoindolin-2-yl)piperidine-2,6-dione] | 0.1 to 1 | 100 to 1000 |
| O=C1CCC(N2Cc3cc(N4C[C@H](C(F)(F)F)N(c5ccccc5)C4=O)ccc3C2=O)C(=O)N1 (stereo partly drawn) [Compound 108, 3-(1-oxo-5-((R)-2-oxo-3-phenyl-4-(trifluoromethyl)imidazolidin-1-yl)isoindolin-2-yl)piperidine-2,6-dione] | > 1 | 100 to 1000 |
| Cc1ccc(N2C(=O)N(c3ccc4c(c3)CN(C3CCC(=O)NC3=O)C4=O)C[C@@H]2C)cn1 (stereo partly drawn) [Compound 155, 3-(5-((S)-4-methyl-3-(6-methylpyridin-3-yl)-2-oxoimidazolidin-1-yl)-1-oxoisoindolin-2-yl)piperidine-2,6-dione] | 0.1 to 1 | 100 to 1000 |
| O=C1CCC(N2Cc3cc(N4CCN(C5CC6(CCC6)C5)C4=O)ccc3C2=O)C(=O)N1 (stereo not drawn) [Compound 153, 3-(1-oxo-5-(2-oxo-3-(spiro[3.3]heptan-2-yl)imidazolidin-1-yl)isoindolin-2-yl)piperidine-2,6-dione] | 0.1 to 1 | 100 to 1000 |
| O=C1CCC(N2Cc3cc(N4CCN(C5CC5)C4=O)ccc3C2=O)C(=O)N1 (stereo not drawn) [Compound 164, 3-[5-(3-cyclopropyl-2-oxo-imidazolidin-1-yl)-1-oxo-isoindolin-2-yl]piperidine-2,6-dione] | 0.1 to 1 | 100 to 1000 |
| CN1CCCC1c1ccc(N2CCN(c3ccc4c(c3)CN(C3CCC(=O)NC3=O)C4=O)C2=O)cc1 (stereo not drawn) [Compound 177, 3-(5-(3-(4-(1-methylpyrrolidin-2-yl)phenyl)-2-oxoimidazolidin-1-yl)-1-oxoisoindolin-2-yl)piperidine-2,6-dione] | > 1 | 100 to 1000 |
| CC1CN(c2ccccc2)C(=O)N1c1ccc2c(c1)CN(C1CCC(=O)NC1=O)C2=O (stereo not drawn) [Compound 117, 3-(5-(5-methyl-2-oxo-3-phenylimidazolidin-1-yl)-1-oxoisoindolin-2-yl)piperidine-2,6-dione] | 0.1 to 1 | 100 to 1000 |
| Cc1ccccc1N1C(=O)N(c2ccc3c(c2)CN(C2CCC(=O)NC2=O)C3=O)C[C@H]1C (stereo partly drawn) [Compound 167, 3-(5-((R)-4-methyl-2-oxo-3-(o-tolyl)imidazolidin-1-yl)-1-oxoisoindolin-2-yl)piperidine-2,6-dione] | 0.1 to 1 | 100 to 1000 |
| Cc1ccc(N2CCN(c3ccc4c(c3)CN(C3CCC(=O)NC3=O)C4=O)C2=O)nc1 (stereo not drawn) [Compound 141, 3-(5-(3-(5-methylpyridin-2-yl)-2-oxoimidazolidin-1-yl)-1-oxoisoindolin-2-yl)piperidine-2,6-dione] | ≤ 0.1 | – |
| Cc1cc(N2CCN(c3ccc4c(c3)CN(C3CCC(=O)NC3=O)C4=O)C2=O)ccn1 (stereo not drawn) [Compound 103, 3-(5-(3-(2-methylpyridin-4-yl)-2-oxoimidazolidin-1-yl)-1-oxoisoindolin-2-yl)piperidine-2,6-dione] | > 1 | – |

Next, values leading:

| DC50 (CK1α) [µM] | IC50 (CRBN/DDB1) [nM] | SMILES |
| --- | --- | --- |
| ≤ 0.1 | > 1000 | O=C1CCC(N2Cc3cc(N4CCN(c5ccccn5)C4=O)ccc3C2=O)C(=O)N1 (stereo not drawn) [Compound 105, 3-(1-oxo-5-(2-oxo-3-(pyridin-2-yl)imidazolidin-1-yl)isoindolin-2-yl)piperidine-2,6-dione] |
| ≤ 0.1 | 100 to 1000 | C[C@@H]1CN(c2ccc3c(c2)CN(C2CCC(=O)NC2=O)C3=O)C(=O)N1C1CCCC1 (stereo partly drawn) [Compound 138, 3-(5-((R)-3-cyclopentyl-4-methyl-2-oxoimidazolidin-1-yl)-1-oxoisoindolin-2-yl)piperidine-2,6-dione] |
| ≤ 0.1 | 100 to 1000 | COC[C@@H]1CN(c2ccc3c(c2)CN(C2CCC(=O)NC2=O)C3=O)C(=O)N1c1ccc(C)cc1 (stereo partly drawn) [Compound 143, 3-(5-((S)-4-(methoxymethyl)-2-oxo-3-(p-tolyl)imidazolidin-1-yl)-1-oxoisoindolin-2-yl)piperidine-2,6-dione] |
| ≤ 0.1 | 100 to 1000 | CC(C)c1ccc(N2CCN(c3ccc4c(c3)CN(C3CCC(=O)NC3=O)C4=O)C2=O)cc1 (stereo not drawn) [Compound 120, 3-(5-(3-(4-isopropylphenyl)-2-oxoimidazolidin-1-yl)-1-oxoisoindolin-2-yl)piperidine-2,6-dione] |
| ≤ 0.1 | 100 to 1000 | C[C@@H]1CN(c2ccc3c(c2)CN(C2CCC(=O)NC2=O)C3=O)C(=O)N1C1CCC1 (stereo partly drawn) [Compound 142, 3-(5-((R)-3-cyclobutyl-4-methyl-2-oxoimidazolidin-1-yl)-1-oxoisoindolin-2-yl)piperidine-2,6-dione] |
| ≤ 0.1 | 100 to 1000 | CC1CN(c2ccc3c(c2)CN(C2CCC(=O)NC2=O)C3=O)C(=O)N1c1ccc(C(F)(F)F)nc1 (stereo not drawn) [Compound 121, 3-(5-(4-methyl-2-oxo-3-(6-(trifluoromethyl)pyridin-3-yl)imidazolidin-1-yl)-1-oxoisoindolin-2-yl)piperidine-2,6-dione] |
| ≤ 0.1 | – | N#Cc1cccc(N2CCN(c3ccc4c(c3)CN(C3CCC(=O)NC3=O)C4=O)C2=O)c1 (stereo not drawn) [Compound 148, 3-(3-(2-(2,6-dioxopiperidin-3-yl)-1-oxoisoindolin-5-yl)-2-oxoimidazolidin-1-yl)benzonitrile] |
| ≤ 0.1 | – | O=C1CCC(N2Cc3cc(N4CCN(c5ccc(C6(C(F)(F)F)CC6)cc5)C4=O)ccc3C2=O)C(=O)N1 (stereo not drawn) [Compound 147, 3-(1-oxo-5-(2-oxo-3-(4-(1-(trifluoromethyl)cyclopropyl)phenyl)imidazolidin-1-yl)isoindolin-2-yl)piperidine-2,6-dione] |
